{"source": "patent US7939530B2", "about": "“Treatment of lymphoma using 10-propargyl-10-deazaaminopterin and gemcitabine” (Sloan-Kettering Institute for Cancer Research, priority 2004, dated 2011)", "key": {"SKI-DLBCL-1 xenografts": {"tested_on": "SKI-DLBCL-1 xenografts", "experiment": "TUNEL immunohistochemical staining for apoptosis in xenografts", "assay_type": "in vivo, mice", "conditions": "day 21; four doses on days 0, 3, 7 and 10; MTX 40 mg/kg, PDX 60 mg/kg", "description": "Immunohistochemical staining for apoptosis as measured by terminal deoxynucleotide transferase-mediated nick end-labeling (TUNEL) was performed on SKI-DLBCL-1 xenografts from mice sacrificed at day 21 following initiation of antifolate therapy. Mice received four doses of saline, MTX (40 mg/kg) or PDX (60 mg/kg) on days 0, 3, 7 and 10."}, "[1]": {"tested_on": "human SKI-DLCL-1 (de novo diffuse large B cell) non-Hodgkin's lymphoma xenografts", "experiment": "Subcutaneous lymphoma xenograft treatment", "assay_type": "in vivo", "conditions": "MTX 40 mg/kg", "excerpt": "(§1) In order to study the effects of PDX on lymphoma growth in vivo, subcutaneous transplantation models in NOD/SCID mice were generated using three established human lymphoma cell line representative of aggressive transformed FL (RL) and de novo extranodal DLBCL (HT; SKI-DLCL-1) histologies. Six to eight week old non-obsese diabetic severe combined immunodeficient (NOD/SCID) mice (Jackson Laboratories, Bar Harbor, Me.) were sub-lethally irradiated with […] from a gamma source and inoculated with 10×10^6 lymphoma cells via a subcutaneous route. When tumor volumes approached 100 mm^3, mice were divided into three groups, averaging 3-8 mice per group. Mice were treated with normal saline or the maximum tolerated dose (MTD) of MTX (40 mg/kg) or PDX (60 mg/kg) via an intraperitoneal route twice weekly for two weeks (four total doses). […] (Sirotnak, et al., Cancer Chemother. Pharmacol. 12: 26-30 (1984); Sirotnak et al., Cancer Chemother. Pharmacol. 42: 313-318 (1998).\n(§2) Engraftment rates in this experiment ranged from 80 to 90%. Palpable tumors formed under the skin approximately 7-10 days after inoculation and were readily measurable with calipers. Mice with subcutaneous lymphoma growths survived an average of 40-50 days after inoculation."}, "[2]": {"tested_on": "human RL (transformed follicular) non-Hodgkin's lymphoma xenografts", "experiment": "Subcutaneous lymphoma xenograft treatment", "assay_type": "in vivo", "conditions": "MTX 40 mg/kg", "excerpt": "as §1, §2"}, "[3]": {"tested_on": "human HT (diffuse large B cell) non-Hodgkin's lymphoma xenografts", "experiment": "Subcutaneous lymphoma xenograft treatment", "assay_type": "in vivo", "excerpt": "as §1, §2"}, "[4]": {"conditions": "PDX 60 mg/kg ip twice weekly for two weeks"}, "[5]": {"conditions": "MTX 40 mg/kg, PDX 60 mg/kg ip twice weekly for two weeks"}}, "note": "Values joined by “and” are separate entries in the source; they are usually repeats but may differ in a detail not shown here. Equal values may be shown once.", "data": [{"smiles": "C#CCC(Cc1cnc2nc(N)nc(N)c2n1)c1ccc(C(=O)N[C@@H](CCC(=O)O)C(=O)O)cc1", "note": "(some centres unmarked) [PDX, 10-Propargyl-10-deazaminopterin]", "values": [{"measurement": "apoptotic cells in tumor tissue (TUNEL)", "setting": "SKI-DLBCL-1 xenografts", "result": "high level of apoptotic cells"}, {"measurement": "Complete Regression (no/total)", "setting": "[1]; PDX 60 mg/kg", "result": "3 of 10 and 3/10"}, {"measurement": "tumor regressions / complete remissions (% of mice)", "setting": "[1]; PDX 60 mg/kg", "result": 30, "unit": "%"}, {"measurement": "Avg Tumor Diameter (mm ± SE)", "setting": "[1]; [4]", "result": "3.5 ± 0.7", "unit": "mm"}, {"measurement": "Avg change in Tumor Volume (mm^3 ± SE)", "setting": "[1]; [4]", "result": "−81 ± 16", "unit": "mm^3"}, {"measurement": "Weight Change (%)", "setting": "[1]; [4]", "result": "−1.2", "unit": "%"}, {"measurement": "Complete Regression (no/total)", "setting": "[2]; PDX 60 mg/kg", "result": "5 of 9 and 5/9"}, {"measurement": "tumor regressions (% of mice)", "setting": "[2]; PDX 60 mg/kg", "result": 57, "unit": "%"}, {"measurement": "Avg Tumor Diameter (mm ± SE)", "setting": "[2]; [4]", "result": "2.7 ± 1.1", "unit": "mm"}, {"measurement": "Avg change in Tumor Volume (mm^3 ± SE)", "setting": "[2]; [4]", "result": "−46 ± 34", "unit": "mm^3"}, {"measurement": "Weight Change (%)", "setting": "[2]; [4]", "result": "−11.1", "unit": "%"}, {"measurement": "Complete Regression (no/total)", "setting": "[3]; MTX 40 mg/kg, PDX 60 mg/kg", "result": "8 of 9 and 8/9"}, {"measurement": "complete tumor regression (% of mice)", "setting": "[3]; MTX 40 mg/kg, PDX 60 mg/kg", "result": 89, "unit": "%"}, {"measurement": "Avg change in Tumor Volume (mm^3 ± SE)", "setting": "[3]; [5]", "result": "−95 ± 0.8", "unit": "mm^3"}, {"measurement": "Weight Change (%)", "setting": "[3]; [5]", "result": "−8.9", "unit": "%"}, {"measurement": "Avg Tumor Diameter (mm ± SE)", "setting": "[3]; MTX 40 mg/kg, PDX 60 mg/kg, at the nadir of tumor regression", "result": "0.5 mm and 0.5 ± 0.3 mm"}, {"measurement": "Tumor Regression (%)", "setting": "[3]; PDX 60 mg/kg, average tumor regression", "result": 99, "unit": "%"}]}]}
